{"source": "patent US8999970B2", "about": "“Administration of an anti-obesity compound to individuals with renal impairment” (Arena Pharmaceuticals, Inc., priority 2010, dated 2015)", "key": {"[1]": {"test": "Toxicity studies in monkeys (single dose, 28-day, 13-week, 12-month)", "format": "in vivo, cynomolgus monkeys", "conditions": "for Exposure multiple relative to human exposure at 10 mg BID: monkeys 100 mg/kg/day", "protocol": "In cynomolgus monkeys, dose-limiting emesis occurred at 300 mg/kg single dose. In repeat\nIn a 28-day repeat dose study, one male given 100 mg/kg/day experienced a seizure. […] Reduced weight gain and food consumption occurred in 28-day, 13-week and 12-month studies at doses ≧10 mg/kg/day. Cholesterol, LDL and HDL decreased at ≧10 mg/kg/day in the 12-month study. […] The NOAEL was considered to be 2 mg/kg/day.\nThis animal continued treatment on Day 2 and no further seizures were observed throughout the duration of the study. […] A reduction in serum lipids (cholesterol, HDL, and LDL) was measured in both sexes treated with ≧10 mg/kg doses of lorcaserin. Reductions in total cholesterol and LDL occurred in some animals treated with 2 mg/kg as well. There was a dose-independent reduction in the mean triglyceride concentration in both sexes at ≧2 mg/kg. Mild increases in ALT occurred primarily in females at all dose levels and in one control animal. White blood cells in the urine of some females dosed at ≧50 mg/kg/day were thought to be associated with renal tubular changes noted histologically in three out of five cases.\nThere were no lorcaserin-related gross findings. Histologic changes were identified in the kidneys, ovaries, and possibly in the liver. Changes in the kidney consisted of focal or multifocal tubular epithelial cell degeneration, regeneration, and cellular casts. […] The histologic renal changes attributed to lorcaserin were not associated with changes in serum chemistry or kidney function. A review of the renal findings was conducted by two expert human renal pathologists, each of whom independently read blinded slides and reached the same conclusion: the administration of lorcaserin to monkeys for 12 months was not associated with drug-related renal pathology. […] One of these pathologists attributed the potential finding of regeneration to a staining artifact resulting in a bluish cytoplasmic discoloration. […] This change was reversible after a one month drug-free interval. […] The lipidosis was not present in animals sacrificed after a one month drug-free interval. No changes were identified by the study pathologist or the peer review pathologist in the heart, heart valves, pulmonary vessels or lungs of animals given lorcaserin compared to controls.\nChanges in the kidney consisted of focal tubular epithelial cell degeneration, regeneration, and cellular casts. […] These findings were not observed in previous monkey studies, and no similar kidney findings occurred in rodents. Renal findings were determined to be unrelated to lorcaserin treatment by two independent human renal pathologists after reviewing blinded slide sets. In their independent opinions, the findings were not dose related and were consistent with age and focal inflammation or infection. One pathologist attributed the findings of regeneration to a staining artifact, resulting in a bluish cytoplasmic discoloration. If tubular renal epithelial regeneration were artifactual, renal findings of the conducting laboratory would be limited to the high dose. At 2, 10, 50, and 125 mg/kg, the margins were 1.0 and 0.6, 8 and 5, 44 and 31, and 51 and 51 times human exposure at the MRD for males and females, respectively. Renal findings in rodents and monkeys were of uncertain relationship to lorcaserin. Substantial margins over human exposure exist for all renal finding in rodents, and in monkeys according to two expert human renal pathologists. Even assuming the renal findings in monkeys are drug related, the principal findings were focal or multifocal, minimal to mild (1 instance of moderate regeneration at the high dose) renal tubular epithelial regeneration and degeneration that would have had to have been much more severe and diffuse to be of clinical relevance. Based upon adverse events, clinical chemistry and urinalyses in an extensive phase 2 and phase 3 program, there is no evidence of a lorcaserin effect on the kidney in humans."}, "[2]": {"test": "Toxicity studies in rats (determination of NOAEL)", "format": "in vivo", "conditions": "for Exposure multiple relative to human exposure at 10 mg BID: rats 5 mg/kg/day (NOAEL); for Exposure multiple of human exposure at 10 mg BID: rats 50 mg/kg/day for 6 months", "protocol": "In rats, a single 1000 mg/kg dose caused death. […] The highest dose tested in 28-day studies, 50 mg/kg/day, was associated with increased serum lipids, centrilobular hepatocellular hypertrophy, splenic extramedullary hematopoiesis, increased pigmented macrophages, and reticulocytosis, and increased kidney weights, with minimal renal tubular epithelial hyperplasia in males only. A 13-week study and a 6-month study gave similar findings except there was no renal tubular epithelial changes and increases in kidney weights were limited to the 3-month study; the NOAEL was 5 mg/kg/day, which produced exposure multiples of 1.2 and 2.8 (males and females) relative to human exposure at a dose of 10 mg BID.\nIn rats but not mice, modest increases in kidney weights were reported at high dose (≧50 mg/kg) in the 10-day, 28-day and 3-month studies, but were without microscopic correlate except in the 28-day study, in which minimal renal tubular epithelial hypertrophy was reported in male rats. In the one year toxicology study in monkeys, minimal to moderate focal tubular epithelial degeneration and/or regeneration were observed. The potential clinical relevance of this finding was evaluated in two ways. First, two pathologists with expertise in human renal pathology (Helmut Rennke, M.D. and Stephen Bonsib, M.D.) independently reviewed all monkey kidney slides from the 1-year study in a blinded manner. Both reported the findings to be mild and focal, clinically unimportant, without dose relationship, and more likely related to aging, infection, or inflammation than to study drug. Secondly, renal function was monitored in clinical trials not only by measuring creatinine and BUN, but also by examining urine sediment and by calculating creatinine clearance. The urine sediment data are of limited value due to the preponderance of “dirty” urine specimens contaminated with epithelial cells and other external debris. Neither BUN nor creatinine was affected by lorcaserin. Creatinine clearance, which was calculated using both actual body weight and the preferred ideal body weight method, was also not affected by lorcaserin use of up to 2 years."}}}
{"smiles": "C[C@H]1CNCCc2ccc(Cl)cc21", "note": "[Lorcaserin, (R)-8-chloro-1-methyl-2,3,4,5-tetrahydro-1H-3-benzazepine]", "values": [{"measurement": "NOAEL at 12 months", "setting": "[1]; both sexes, cynomolgus monkey, in vivo, oral, monkeys, 12-month study", "result": 2, "unit": "mg/kg/day"}, {"measurement": "MTD", "setting": "[1]; cynomolgus monkey, in vivo, oral, monkeys, repeat dose studies, read-out: Maximum tolerated dose", "result": "100 to 125", "unit": "mg/kg/day"}, {"measurement": "Single dose with dose-limiting emesis", "setting": "[1]; cynomolgus monkeys", "result": 300, "unit": "mg/kg"}, {"measurement": "Margin, times human exposure at the MRD", "setting": "[1]; monkeys 2 mg/kg, females", "result": 0.6, "unit": "times"}, {"measurement": "Margin, times human exposure at the MRD", "setting": "[1]; monkeys 2 mg/kg, males", "result": 1.0, "unit": "times"}, {"measurement": "Margin, times human exposure at the MRD", "setting": "[1]; monkeys 10 mg/kg, females", "result": 5, "unit": "times"}, {"measurement": "Margin, times human exposure at the MRD", "setting": "[1]; monkeys 10 mg/kg, males", "result": 8, "unit": "times"}, {"measurement": "Margin, times human exposure at the MRD", "setting": "[1]; monkeys 50 mg/kg, females", "result": 31, "unit": "times"}, {"measurement": "Margin, times human exposure at the MRD", "setting": "[1]; monkeys 50 mg/kg, males", "result": 44, "unit": "times"}, {"measurement": "Exposure multiple relative to human exposure at 10 mg BID", "setting": "[1]; females", "result": 68}, {"measurement": "Exposure multiple relative to human exposure at 10 mg BID", "setting": "[1]; males", "result": 74}, {"measurement": "Margin, times human exposure at the MRD", "setting": "[1]; monkeys 125 mg/kg, females", "result": 51, "unit": "times"}, {"measurement": "Margin, times human exposure at the MRD", "setting": "[1]; monkeys 125 mg/kg, males", "result": 51, "unit": "times"}, {"measurement": "Animals with focal renal tubular epithelial cell degeneration and/or regeneration (minimal to mild regeneration in renal cortex)", "setting": "[1]; monkeys 12 months, 2 mg/kg", "result": "1/8"}, {"measurement": "Females with cystic ovarian follicles", "setting": "[1]; monkeys 12 months, 2 mg/kg", "result": "0/4"}, {"measurement": "Animals with hepatic lipidosis", "setting": "[1]; monkeys 12 months, 2 mg/kg/day", "result": "4/8"}, {"measurement": "Animals with focal renal tubular epithelial cell degeneration and/or regeneration (minimal to mild regeneration in renal cortex)", "setting": "[1]; monkeys 12 months, 10 mg/kg", "result": "2/8"}, {"measurement": "Females with cystic ovarian follicles", "setting": "[1]; monkeys 12 months, 10 mg/kg", "result": "1/4"}, {"measurement": "Animals with hepatic lipidosis", "setting": "[1]; monkeys 12 months, 10 mg/kg/day", "result": "2/8"}, {"measurement": "Animals with focal renal tubular epithelial cell degeneration and/or regeneration (minimal to mild regeneration in renal cortex)", "setting": "[1]; monkeys 12 months, 50 mg/kg", "result": "3/8"}, {"measurement": "Females with cystic ovarian follicles", "setting": "[1]; monkeys 12 months, 50 mg/kg", "result": "1/4"}, {"measurement": "Males with cellular casts", "setting": "[1]; monkeys 12 months, 50 mg/kg", "result": "1/4"}, {"measurement": "Animals with hepatic lipidosis", "setting": "[1]; monkeys 12 months, 50 mg/kg/day", "result": "3/8"}, {"measurement": "Animals with cellular casts", "setting": "[1]; monkeys 12 months, 125 mg/kg", "result": "4/4"}, {"measurement": "Animals with focal renal tubular epithelial cell degeneration and/or regeneration (minimal to mild regeneration in renal cortex)", "setting": "[1]; monkeys 12 months, 125 mg/kg", "result": "6/8"}, {"measurement": "Females with cellular casts", "setting": "[1]; monkeys 12 months, 125 mg/kg", "result": "2/4"}, {"measurement": "Females with cystic ovarian follicles", "setting": "[1]; monkeys 12 months, 125 mg/kg", "result": "3/4"}, {"measurement": "Males with cellular casts", "setting": "[1]; monkeys 12 months, 125 mg/kg", "result": "1/4"}, {"measurement": "Animals with regeneration (incl. moderate)", "setting": "[1]; monkeys 12 months, 125 mg/kg group", "result": "7/8"}, {"measurement": "Animals with hepatic lipidosis", "setting": "[1]; monkeys 12 months, 250 mg/kg/day", "result": "4/8"}, {"measurement": "Doses with dose-dependent decrease in activity and hunched appearance", "setting": "[1]; monkeys 12 months, both sexes", "result": "≥ 10", "unit": "mg/kg"}, {"measurement": "Females with moderate epithelial regeneration", "setting": "[1]; monkeys 12 months, high dose", "result": "1/4"}, {"measurement": "Animals with minimal to mild tubular epithelial degeneration", "setting": "[1]; monkeys 12 months, high dose group (125 mg/kg)", "result": "6 of 8"}, {"measurement": "Doses at which cholesterol, LDL and HDL decreased", "setting": "[1]; monkeys, 12-month study", "result": "≥ 10", "unit": "mg/kg/day"}, {"measurement": "Lorcaserin-related deaths", "setting": "[1]; monkeys, 12-month study", "result": "no lorcaserin-related deaths"}, {"measurement": "Doses with reduced weight gain and food consumption", "setting": "[1]; monkeys, 28-day, 13-week and 12-month studies", "result": "≥ 10", "unit": "mg/kg/day"}, {"measurement": "NOAEL", "setting": "[2]; both sexes, rat, in vivo, rats, 13-week and 6-month studies", "result": 5, "unit": "mg/kg/day"}, {"measurement": "Single dose that caused death", "setting": "[2]; rats", "result": 1000, "unit": "mg/kg"}, {"measurement": "Exposure multiple relative to human exposure at 10 mg BID", "setting": "[2]; females", "result": 2.8}, {"measurement": "Exposure multiple relative to human exposure at 10 mg BID", "setting": "[2]; males", "result": 1.2}, {"measurement": "Exposure multiple of human exposure at 10 mg BID", "setting": "[2]; females", "result": 34, "unit": "times"}, {"measurement": "Exposure multiple of human exposure at 10 mg BID", "setting": "[2]; males", "result": 22, "unit": "times"}, {"measurement": "Doses with no mortality", "setting": "[2]; rats, 10-day repeat dose studies", "result": "≤ 150", "unit": "mg/kg/day"}, {"measurement": "Doses with modest increases in kidney weights", "setting": "[2]; rats, 10-day, 28-day and 3-month studies", "result": "≥ 50", "unit": "mg/kg"}]}
